In PubChem BioAssay AID977613 (Broad Institute, 2014):
Calls of active or inactive are those of the source. How the calls were made is not given here.

The compounds below were run on Broad 7084-01 inhibitor HTS, set 2 (assay: single-concentration hits, screen 7084 set 2 (AID 977613);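 further: host cells are infected with parasite promastigotes that become internalized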).
In the case of `COc1ccc2c3c(n(C)c2c1)[C@@H](CO)N(C(=O)C1CC1)CC31CCN(Cc2cccc(F)c2)CC1`, the active concentration is reported as > 10 µM (inactive). `COc1cccc(C(=O)N2C[C@H]3[C@@H](c4ccccc42)[C@H](CO)N3Cc2ccccc2Cl)c1` gave an active concentration of less than 10 µM. `CN(C)CC(=O)N1CCCCN2[C@H](C1)[C@H](c1ccc(/C=C/c3ccccc3)cc1)[C@@H]2CO` was tested, and the active concentration was > 10 µM (inactive). With `COc1cccc(CN2CCCCN3[C@H](C2)[C@H](c2ccc(-c4cccnc4)cc2)[C@@H]3CO)c1` the active concentration was > 10 µM (inactive). With `OC[C@@H]1[C@H](c2ccccc2)C2(CN(Cc3nccs3)C2)N1Cc1cccnc1` the active concentration was > 10 µM (inactive). For `O=C(C1CCCCC1)N1C[C@H]2[C@@H](c3ccccc31)[C@H](CO)N2C(=O)Cc1ccccn1`, the active concentration was > 10 µM (inactive). `CC(C)CC#Cc1ccc([C@H]2[C@@H](CO)N3C(=O)CN(C(=O)c4ccccn4)C[C@@H]23)cc1` was tested, and the active concentration was > 10 µM (inactive). `N#C[C@H]1[C@@H](c2ccccc2C2=CCCC2)[C@H](CO)N1S(=O)(=O)c1ccccc1` was tested, and the active concentration was > 10 µM (inactive). For `CCS(=O)(=O)N1CC2(C1)[C@H](c1ccccc1)[C@@H](CO)N2C(=O)c1ccccc1`, the active concentration was > 10 µM (inactive). In the case of `O=S(=O)(c1ccccc1)N1CC[C@@H]2[C@H]1c1cc(Br)ccc1N[C@@H]2CO`, the active concentration is reported as > 10 µM (inactive). For `CCNC(=O)Nc1ccc2c(c1)C(=O)N(C)[C@H]1CC[C@@H](CC(=O)N[C@H](C)c3ccccc3)O[C@H]1CO2`, the active concentration was > 10 µM (inactive). `Cc1ccccc1-c1ccc([C@H]2[C@H](CO)N3C(=O)CN(C(=O)Nc4cccc(F)c4)C[C@@H]23)cc1` was tested, and the active concentration was > 10 µM (inactive). For `CN(C)C(=O)[C@H]1[C@H](CO)[C@H]2Cn3c(ccc(-c4cncnc4)c3=O)[C@H]2N1Cc1cc(F)ccc1F`, the active concentration was > 10 µM (inactive). In the case of `CCCNC(=O)N1CC(=O)N2[C@H](C1)[C@H](c1ccc(C#CCC3CCCC3)cc1)[C@@H]2CO`, the active concentration is reported as > 10 µM (inactive). `O=C(C[C@@H]1CC[C@@H]2[C@H](COC[C@H](O)CN2C(=O)Nc2ccc(Cl)cc2)O1)NCC1CC1` was tested, and the active concentration was > 10 µM (inactive). With `O=S(=O)(c1ccc(F)cc1)N1C[C@H]2[C@@H](c3ccccc31)[C@H](CO)N2Cc1ccc2c(c1)OCO2` the active concentration was > 10 µM (inactive). `CC(C)NC(=O)Nc1ccc2c(c1)C(=O)N(C)[C@@H]1CC[C@H](CC(=O)NCc3ccc(F)cc3)O[C@@H]1CO2` was tested, and the active concentration was > 10 µM (inactive). For `CC(C)C#Cc1ccc([C@H]2[C@@H](CO)N3C(=O)CN(C(=O)Cc4ccccc4)C[C@@H]23)cc1`, the active concentration was > 10 µM (inactive). In the case of `O=C(C[C@@H]1CC[C@H]2[C@@H](COC[C@H](O)CN2Cc2cccc(C(F)(F)F)c2)O1)NCc1ccccc1`, the active concentration is reported as > 10 µM (inactive). With `O=C(c1cccc(F)c1)N1CCCCN2[C@H](C1)[C@@H](c1ccc(C#CC3(O)CCCC3)cc1)[C@@H]2CO` the active concentration was > 10 µM (inactive). For `O=S(=O)(c1ccc(F)cc1)N1CCCCN2[C@@H](CO)[C@@H](c3ccc(-c4cncnc4)cc3)[C@@H]2C1`, the active concentration was > 10 µM (inactive). In the case of `O=C(C[C@@H]1CC[C@@H]2[C@H](COC[C@@H](O)CN2S(=O)(=O)c2ccccc2)O1)Nc1ccccc1`, the active concentration is reported as > 10 µM (inactive). In the case of `O=C(C[C@H]1CC[C@@H]2[C@H](COC[C@@H](O)CN2S(=O)(=O)c2ccc(F)cc2)O1)NCC1CC1`, the active concentration is reported as > 10 µM (inactive). `CN(C)CC(=O)N1CC2(C1)[C@H](c1ccccc1)[C@@H](CO)N2S(C)(=O)=O` was tested, and the active concentration was > 10 µM (inactive). With `COc1cccc(NC(=O)N2C[C@@H](O)COC[C@@H]3O[C@@H](CC(=O)NC4CCC4)CC[C@H]32)c1` the active concentration was > 10 µM (inactive). With `OC[C@H]1[C@H](c2ccc(Br)cc2)[C@H]2CN(Cc3ccccn3)CCCCN21` the active concentration was less than 10 µM. With `OC[C@@H]1[C@H]2c3ccccc3NC[C@H]2N1CC1CCOCC1` the active concentration was > 10 µM (inactive). For `O=C(c1cnccn1)N1CC(=O)N2[C@H](CO)[C@@H](c3ccc(C#CC4CC4)cc3)[C@H]2C1`, the active concentration was > 10 µM (inactive). In the case of `Cc1ccccc1S(=O)(=O)N1CC[C@@H]2[C@@H](CO)N(C)c3ccc(-c4cccc(C#N)c4)cc3[C@@H]21`, the active concentration is reported as > 10 µM (inactive). With `CN1c2ccc(Br)cc2[C@@H]2[C@@H](CCN2S(=O)(=O)c2cccc(F)c2)[C@@H]1CO` the active concentration was > 10 µM (inactive). For `O=C(C[C@@H]1CC[C@@H]2[C@H](COC[C@H](O)CN2C(=O)c2ccccc2F)O1)NCc1ccccc1`, the active concentration was > 10 µM (inactive). `O=C(C[C@@H]1CC[C@@H]2[C@H](COC[C@H](O)CN2CC2CCOCC2)O1)NCC1CCCCC1` was tested, and the active concentration was > 10 µM (inactive). `Cc1cccc(S(=O)(=O)N2CC[C@@H]3[C@H]2c2cc(C#Cc4ccccc4F)ccc2N[C@@H]3CO)c1` was tested, and the active concentration was > 10 µM (inactive). `OC[C@@H]1[C@@H](c2ccccc2)C2(CN(Cc3nccs3)C2)N1CCC(F)(F)F` was tested, and the active concentration was > 10 µM (inactive). For `Cc1ccccc1-c1ccc([C@H]2[C@H](CO)N3C(=O)CN(S(C)(=O)=O)C[C@@H]23)cc1`, the active concentration was > 10 µM (inactive). With `CN1c2ccc(-c3ccc(C#N)cc3)cc2[C@@H]2[C@@H](CCN2C(=O)Nc2cccc(F)c2)[C@@H]1CO` the active concentration was > 10 µM (inactive). In the case of `COc1ccc2c3c([nH]c2c1)[C@H](CO)N(C(=O)C1CCCCC1)CC31CCN(C)CC1`, the active concentration is reported as > 10 µM (inactive). `CC(=O)N1CCCCN2[C@@H](CO)[C@@H](c3ccc(-c4ccccc4)cc3)[C@@H]2C1` was tested, and the active concentration was > 10 µM (inactive). `COC(=O)[C@H]1[C@H](CO)[C@H]2Cn3c(ccc(-c4cccc(OC)c4)c3=O)[C@H]2N1Cc1nccs1` was tested, and the active concentration was > 10 µM (inactive). For `CC(C)NC(=O)N1[C@H](CO)[C@@H](c2ccccc2-c2ccc(F)cc2)[C@@H]1C#N`, the active concentration was > 10 µM (inactive). `CN(C)C(=O)C[C@H]1CC[C@H]2[C@@H](COC[C@H](O)CN2CC2CC2)O1` was tested, and the active concentration was > 10 µM (inactive). With `N#C[C@@H]1[C@H](c2ccccc2-c2ccccc2)[C@H](CO)N1C(=O)Cc1ccncc1` the active concentration was > 10 µM (inactive). In the case of `CN1C(=O)c2cc(NC(=O)Cc3cccs3)ccc2OC[C@@H]2O[C@@H](CC(=O)N[C@@H]3CCN(Cc4ccccc4)C3)CC[C@H]21`, the active concentration is reported as > 10 µM (inactive). With `COc1cccc(-c2ccccc2[C@H]2[C@@H](C#N)N(C(=O)c3ccccn3)[C@@H]2CO)c1` the active concentration was > 10 µM (inactive). In the case of `COc1ccc(NC(=O)N2CC[C@@H]3[C@H]2c2cc(Br)ccc2N(C)[C@H]3CO)cc1`, the active concentration is reported as > 10 µM (inactive). `CCCC#Cc1ccc([C@H]2[C@H]3CN(C(=O)c4cccnc4)CC(=O)N3[C@H]2CO)cc1` was tested, and the active concentration was > 10 µM (inactive). In the case of `C/C=C/c1ccc([C@@H]2[C@@H](CO)N3C(=O)CN(C(=O)c4ccncc4)C[C@@H]23)cc1`, the active concentration is reported as > 10 µM (inactive). For `COc1ccc(NC(=O)N2CCCCN3[C@H](CO)[C@@H](c4ccc(-c5ccccc5F)cc4)[C@@H]3C2)cc1`, the active concentration was > 10 µM (inactive). `COc1ccccc1NC(=O)N1C[C@@H]2[C@H](c3ccccc31)[C@@H](CO)N2C(C)=O` was tested, and the active concentration was > 10 µM (inactive). In the case of `N#C[C@@H]1[C@@H](c2ccccc2C2=CCCCC2)[C@@H](CO)N1S(=O)(=O)c1cccc(F)c1`, the active concentration is reported as > 10 µM (inactive). With `O=C(c1cccnc1)N1C[C@H]2[C@@H](c3ccccc31)[C@H](CO)N2C(=O)CN1CCOCC1` the active concentration was less than 10 µM. `CCC(=O)N1[C@H](CO)[C@H]2c3ccccc3N(S(=O)(=O)c3ccccc3C)C[C@H]21` was tested, and the active concentration was > 10 µM (inactive). For `O=C(C1CCCCC1)N1CC(=O)N2[C@@H](CO)[C@@H](c3ccc(-c4ccccc4F)cc3)[C@@H]2C1`, the active concentration was > 10 µM (inactive). In the case of `C/C=C/c1ccc([C@H]2[C@H](CO)N(S(=O)(=O)Cc3ccccc3)C23CN(C(=O)C2CCCC2)C3)cc1`, the active concentration is reported as > 10 µM (inactive). With `O=C(C[C@H]1CC[C@H]2[C@@H](COC[C@@H](O)CN2C(=O)c2ccccc2F)O1)NCc1ccccc1` the active concentration was > 10 µM (inactive). In the case of `COc1ccc2c3c([nH]c2c1)[C@@H](CO)N(C(=O)C1CCC1)CC31CN(C(=O)c2ccccn2)C1`, the active concentration is reported as > 10 µM (inactive). `CC(C)C#Cc1ccc([C@@H]2[C@@H](CO)N3C(=O)CN(C(=O)c4ccc5c(c4)OCO5)C[C@H]23)cc1` was tested, and the active concentration was > 10 µM (inactive). With `O=C(C[C@H]1CC[C@@H]2[C@H](COC[C@H](O)CN2C(=O)Nc2ccc(Cl)c(Cl)c2)O1)NCc1ccc(Cl)cc1` the active concentration was > 10 µM (inactive). `N#C[C@H]1[C@H](c2ccccc2-c2ccccc2F)[C@@H](CO)N1C(=O)C1CCC1` was tested, and the active concentration was > 10 µM (inactive). With `CCCN1[C@H](C(=O)NCCCN2CCOCC2)[C@@H](CO)[C@@H]2Cn3c(ccc(-c4ccncc4)c3=O)[C@@H]21` the active concentration was > 10 µM (inactive). With `O=C(C[C@@H]1CC[C@H]2[C@@H](COC[C@H](O)CN2Cc2cc(F)ccc2F)O1)NCc1ccc(F)cc1` the active concentration was > 10 µM (inactive). For `O=C(C1CCCC1)N1CC2(C1)[C@H](c1ccccc1)[C@@H](CO)N2CC1CC1`, the active concentration was > 10 µM (inactive). In the case of `O=C(C[C@@H]1CC[C@H]2[C@@H](COC[C@@H](O)CN2Cc2cc(F)ccc2F)O1)NCc1ccc(F)cc1`, the active concentration is reported as > 10 µM (inactive). `COc1ccc2c3c([nH]c2c1)[C@@H](CO)N(C(=O)CN(C)C)CC31CCN(Cc2cncnc2)CC1` was tested, and the active concentration was > 10 µM (inactive). For `OC[C@@H]1[C@@H](c2ccccc2)C2(CN(Cc3nccs3)C2)N1CC1CCOCC1`, the active concentration was > 10 µM (inactive). `O=C(C[C@H]1CC[C@@H]2[C@H](COC[C@@H](O)CN2Cc2cc(F)cc(F)c2)O1)NC1CCC1` was tested, and the active concentration was > 10 µM (inactive). In the case of `C[C@H](O)C#Cc1ccc([C@@H]2[C@@H](CO)N3CCCCN(C(=O)c4ccc5c(c4)OCO5)C[C@H]23)cc1`, the active concentration is reported as > 10 µM (inactive). With `O=C(CC1CC1)N1CC(=O)N2[C@H](CO)[C@@H](c3ccc(/C=C/c4ccccc4)cc3)[C@@H]2C1` the active concentration was > 10 µM (inactive). In the case of `N#C[C@@H]1[C@H](c2ccccc2C2=CCCCC2)[C@H](CO)N1C(=O)C1CCOCC1`, the active concentration is reported as > 10 µM (inactive). `O=C(C[C@@H]1CC[C@@H]2NC[C@@H](O)COC[C@H]2O1)NCCN1CCCC1` was tested, and the active concentration was > 10 µM (inactive). In the case of `O=C(C[C@H]1CC[C@@H]2[C@H](COC[C@@H](O)CN2S(=O)(=O)c2cccc(Cl)c2)O1)NC1CCC1`, the active concentration is reported as > 10 µM (inactive).
